In patent publication US11241421B2, “Combination therapies for treating cancer” (UNIVERSITY OF VIRGINIA PATENT FOUNDATION, priority 2016, dated 2022):

Experiments:
[1] = relative to the methoxy compound; cited from earlier work
[2] = system: CBFβ-SMMHC fusion protein; conditions: cited from earlier work
[3] = system: Cbfb^+/MYH11; Nras^+/G12D leukemic cells; assay: Leukemia transplantation studies in mice (inv(16) AML model); format: in vivo; conditions: for white blood cell count: peripheral blood, doxorubicin 2 mg/kg single dose, AI-10-49 200 mg/kg daily intraperitoneally for 10 days, FIG. 1; for Lin-Sca1-c-Kit+ cell population (number of cells): spleen, flow cytometry, same dosing, FIG. 4
Procedure: The experiments with animals were performed in accordance with a protocol reviewed and approved by the University of Massachusetts Institutional Animal Care and Use Committee. An efficient mouse model of inv(16)AML was used. (L. Xue, et al., 2014.) Leukemic cells carrying Cbfb^+/MYH11 and Nras^+/G12D oncogenic alleles were generated in CD45.2 C57BL/6 mice, as previously described (Illendula, et al., 2015.) Briefly, 2×10^3 Cbfb^+/MYH11; Nras^+/G12D leukemic cells were transplanted into each of 16 sub-lethally irradiated six to eight-week-old CD45.1 C57BL/6 female mice. Five days post-transplant, mice were placed in 4 groups with 4 mice in each group: DMSO (control, 50 μL), Dox, AI-10-49, and Dox+AI-10-49. Both Dox groups received a single dose of doxorubicin (2 mg/kg) 5 days post-transplant. Both AI-10-49 groups received a daily dose of AI-10-49 (200 mg/kg) in DMSO injected intraperitoneally for 10 days. After this 10-day period, all mice were sacrificed and analyzed for leukemia burden via several measures. Mice were kept under observation by more than one person to determine the median leukemia latency, and were euthanized once signs of disease were detected, including reduced motility and grooming activity, hunched back, pale paws (anemia), and hypothermia. At time of euthanasia, peripheral blood and spleen cells were extracted and analyzed as previously described (Y. H. Kuo, et al., 2006.). Leukemia burden was analyzed in peripheral blood by measuring the total white blood cell counts, the number of cells in the c-kit(+)-gated population, spleen weight and cell number, and spleen Lin-Sca1-c-kit+ population. For Kit+ and Lin-Sca-Kit+ results, flow cytometry was used to measure the effect.

[4] = system: ME-1 cell line, a leukemia cell line with inv(16); conditions: cited from earlier work
[5] = biological target: T1, CBFβ (Homo sapiens, UniProt Q13951); conditions: cited from earlier work
T1 sequence (Q13951 1-182): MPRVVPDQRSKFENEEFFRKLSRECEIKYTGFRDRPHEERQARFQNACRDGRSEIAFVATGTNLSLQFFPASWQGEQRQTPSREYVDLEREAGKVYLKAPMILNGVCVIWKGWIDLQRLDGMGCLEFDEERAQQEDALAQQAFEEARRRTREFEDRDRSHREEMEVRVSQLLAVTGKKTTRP

[6] = compared with doxorubicin; cited from earlier work
[7] = compared with daunorubicin; cited from earlier work
[8] = compared with daunorubicin; cited from earlier work; remark: listed apart in the source

In the case of `FC(F)(F)Oc1ccc2[nH]c(-c3ccccn3)nc2c1` [A-10-47, 2-(pyridin-2-yl)-5-(trifluoromethoxy)-1H-benzo[d]imidazole], the metabolic stability [1] is given as “enhanced metabolic stability”.

For `COc1ccc2[nH]c(-c3ccccn3)nc2c1` [AI-4-57, 5-methoxy-2-(pyridin-2-yl)-1H-benzo[d]imidazole], the “binding to the CBFβ-SMMHC fusion protein” value [2] is given as “binds to the CBFβ portion of the CBFβ-SMMHC fusion protein” and the “inhibition of CBFβ-SMMHC binding to the Runt domain of RUNX proteins” value [2] is given as “inhibits its binding to the Runt domain of RUNX proteins”.

In the case of `FC(F)(F)Oc1ccc2[nH]c(-c3ccc(OCCOCCOc4ccc(-c5nc6cc(OC(F)(F)F)ccc6[nH]5)nc4)cn3)nc2c1` [AI-10-49], the “white blood cell count” value [3] is listed as “reduced”, the “Lin-Sca1-c-Kit+ cell population (number of cells)” value [3] is listed as “modest effect” and the “inhibition of CBFβ-SMMHC binding to the Runt domain of RUNX proteins” value [2] is listed as “potent and CBFβ-SMMHC specific”. For the same compound, the cell death [4] was “induced cell death” and the “effect on CBFβ function” value [5] was “minimal effect”.

With `COc1cccc2c1C(=O)c1c(O)c3c(c(O)c1C2=O)C[C@@](O)(C(=O)CO)C[C@@H]3O[C@H]1C[C@H](N)[C@H](O)[C@H](C)O1` [Dox, doxorubicin] the “white blood cell count” value [3] was “reduced” and the “Lin-Sca1-c-Kit+ cell population (number of cells)” value [3] was “no effect”.

For `COc1cccc2c1C(=O)c1c(O)c3c(c(O)c1C2=O)C[C@@](O)(C(=O)CO)C[C@@H]3O[C@H]1C[C@H](N)[C@@H](O)[C@H](C)O1` [Epirubicin], the half-life [6] is given as “longer” and the volume of distribution [6] is given as “increased”.

For `CC(=O)[C@]1(O)Cc2c(O)c3c(c(O)c2[C@@H](O[C@H]2C[C@H](N)[C@H](O)[C@H](C)O2)C1)C(=O)c1ccccc1C3=O` [Idarubicin], the lipophilicity [7] is given as “more lipophilic” and the cellular uptake [8] is given as “higher”.
